{"source": "patent US20170281758A1", "about": "“CAL[…] DRUG […] AN A[…] TO A SUGAR MOIETY ON CALICHEAMICIN” (Sorrento Therapeutics, Inc., priority 2016, published 2017)", "key": {"MCF-7 (Her2+/−)": {"tested_on": "MCF-7 (Her2+/−)", "details": "anti-HER2 IgG ADC, treatment 5 days, 50% cell growth inhibition", "description": "(§1) The antibody used was an anti-HER2 IgG class of antibody. Seven breast cancer cell lines with various level of Her2 expression as indicated with plus or minus signs in the table below were plated in 96 well plate. The ADCs as listed under Drug-Linker ID were serial diluted and added onto cells for treatment for 5 days. At the end of the study, cell proliferation was measured by Promega's CellTitreGlo."}, "JIMT-1 (Her2+++)": {"tested_on": "JIMT-1 (Her2+++)", "details": "anti-HER2 IgG ADC, treatment 5 days, 50% cell growth inhibition", "description": "as §1"}, "HCC1954 (Her2+++)": {"tested_on": "HCC1954 (Her2+++)", "details": "anti-HER2 IgG ADC, treatment 5 days, 50% cell growth inhibition", "description": "as §1"}, "BT474 (Her2+++)": {"tested_on": "BT474 (Her2+++)", "details": "anti-HER2 IgG ADC, treatment 5 days, 50% cell growth inhibition", "description": "as §1"}, "SKBR-3 (Her2+++)": {"tested_on": "SKBR-3 (Her2+++)", "details": "anti-HER2 IgG ADC, treatment 5 days, 50% cell growth inhibition", "description": "as §1"}, "[1]": {"tested_on": "Seven breast cancer cell lines with various level of Her2 expression", "experiment": "Overall assessment of anti-HER2 ADCs over the cell panel (efficacy, toxicity, therapeutic window)", "type": "cell-based", "description": "as §1"}, "MDA468 (Her2−)": {"tested_on": "MDA468 (Her2−)", "details": "anti-HER2 IgG ADC; MDA468 (Her2−) control cell line; treatment 5 days; 50% cell growth inhibition", "description": "as §1"}, "MDA-453 (Her2++)": {"tested_on": "MDA-453 (Her2++)", "details": "anti-HER2 IgG ADC, treatment 5 days, 50% cell growth inhibition", "description": "as §1"}}}
{"smiles": "CCN(C(=O)CNC(=O)OCc1ccc(NC(=O)[C@H](CC(N)=O)NC(=O)[C@H](C)NC(=O)[C@H](C)NC(=O)CCC(=O)N2CCC(C(=O)O)CC2)cc1)C1COC(OC2C(O[C@H]3C#C/C=C\\C#C[C@]4(O)CC(=O)C(NC(=O)OC)=C3/C4=C\\CSSC(C)(C)CC(=O)NCC(O)CO)OC(C)C(NOC3CC(O)C(SC(=O)c4c(C)c(I)c(OC5OC(C)C(O)C(OC)C5O)c(OC)c4OC)C(C)O3)C2O)CC1OC", "note": "(stereo partly drawn) [Compound 15]", "values": [{"measurement": "EC50", "setting": "MCF-7 (Her2+/−)", "result": "> 100", "unit": "nM"}, {"measurement": "EC50", "setting": "JIMT-1 (Her2+++)", "result": 0.17, "unit": "nM"}, {"measurement": "EC50", "setting": "HCC1954 (Her2+++)", "result": 0.064, "unit": "nM"}, {"measurement": "EC50", "setting": "BT474 (Her2+++)", "result": 1.46, "unit": "nM"}, {"measurement": "EC50", "setting": "SKBR-3 (Her2+++)", "result": 0.17, "unit": "nM"}, {"measurement": "Assessment of efficacy and toxicity / therapeutic window", "setting": "[1]", "result": "successful candidates with high efficacy and good therapeutic window"}]}
{"smiles": "CCN(C(=O)CNC(=O)OCc1ccc(NC(=O)[C@H](C)NC(=O)[C@@H](NC(=O)CCCn2nnc(CBr)c2CBr)C(C)C)cc1)C1COC(OC2C(O[C@H]3C#C/C=C\\C#C[C@]4(O)CC(=O)C(NC(=O)OC)=C3/C4=C\\CSSC(C)(C)CCC(=O)NCCOCCOCCOCCO)OC(C)C(NOC3CC(O)C(SC(=O)c4c(C)c(I)c(OC5OC(C)C(O)C(OC)C5O)c(OC)c4OC)C(C)O3)C2O)CC1OC", "note": "(stereo partly drawn) [Compound 30]", "values": [{"measurement": "EC50", "setting": "MDA468 (Her2−)", "result": 24, "unit": "nM"}, {"measurement": "EC50", "setting": "MCF-7 (Her2+/−)", "result": 0.5, "unit": "nM"}, {"measurement": "EC50", "setting": "JIMT-1 (Her2+++)", "result": 0.09, "unit": "nM"}, {"measurement": "EC50", "setting": "BT474 (Her2+++)", "result": 1.41, "unit": "nM"}, {"measurement": "EC50", "setting": "SKBR-3 (Her2+++)", "result": 0.065, "unit": "nM"}, {"measurement": "EC50", "setting": "MDA-453 (Her2++)", "result": 0.05, "unit": "nM"}, {"measurement": "Assessment of efficacy and toxicity / therapeutic window", "setting": "[1]", "result": "successful candidates with high efficacy and good therapeutic window"}]}
{"smiles": "CCN(C(=O)CNC(=O)OCc1ccc(NC(=O)[C@H](C)NC(=O)[C@@H](NC(=O)CCCC(=O)O)C(C)C)cc1)C1COC(OC2C(O[C@H]3C#C/C=C\\C#C[C@]4(O)CC(=O)C(NC(=O)OC)=C3/C4=C\\CSSC(C)CCC(=O)NCC(O)CO)OC(C)C(NOC3CC(O)C(SC(=O)c4c(C)c(I)c(OC5OC(C)C(O)C(OC)C5O)c(OC)c4OC)C(C)O3)C2O)CC1OC", "note": "(stereo partly drawn) [Compound 37]", "values": [{"measurement": "EC50", "setting": "MDA468 (Her2−)", "result": 16.9, "unit": "nM"}, {"measurement": "EC50", "setting": "MCF-7 (Her2+/−)", "result": 0.33, "unit": "nM"}, {"measurement": "EC50", "setting": "JIMT-1 (Her2+++)", "result": 0.141, "unit": "nM"}, {"measurement": "EC50", "setting": "BT474 (Her2+++)", "result": 1.53, "unit": "nM"}, {"measurement": "EC50", "setting": "SKBR-3 (Her2+++)", "result": 0.234, "unit": "nM"}, {"measurement": "EC50", "setting": "MDA-453 (Her2++)", "result": 0.33, "unit": "nM"}, {"measurement": "Assessment of efficacy and toxicity / therapeutic window", "setting": "[1]", "result": "successful candidates with high efficacy and good therapeutic window"}]}
{"smiles": "CCN(C(=O)CNC(=O)OCc1ccc(NC(=O)[C@H](C)NC(=O)[C@@H](NC(=O)CCCC(=O)O)C(C)C)cc1)C1COC(OC2C(O[C@H]3C#C/C=C\\C#C[C@]4(O)CC(=O)C(NC(=O)OC)=C3/C4=C\\CSSC(C)CCC(=O)NC3C(O)OC(CO)C(O)C3O)OC(C)C(NOC3CC(O)C(SC(=O)c4c(C)c(I)c(OC5OC(C)C(O)C(OC)C5O)c(OC)c4OC)C(C)O3)C2O)CC1OC", "note": "(stereo partly drawn) [Compound 40]", "values": [{"measurement": "EC50", "setting": "MDA468 (Her2−)", "result": 41.7, "unit": "nM"}, {"measurement": "EC50", "setting": "MCF-7 (Her2+/−)", "result": 90, "unit": "nM"}, {"measurement": "EC50", "setting": "JIMT-1 (Her2+++)", "result": 0.35, "unit": "nM"}, {"measurement": "EC50", "setting": "BT474 (Her2+++)", "result": 0.9, "unit": "nM"}, {"measurement": "EC50", "setting": "SKBR-3 (Her2+++)", "result": 0.657, "unit": "nM"}, {"measurement": "EC50", "setting": "MDA-453 (Her2++)", "result": 0.1, "unit": "nM"}, {"measurement": "Assessment of efficacy and toxicity / therapeutic window", "setting": "[1]", "result": "successful candidates with high efficacy and good therapeutic window"}]}
